What was measured:
[1] = biological target: Fatty-acid amide hydrolase 1 (Rattus norvegicus) (UniProt P97612); assay: Inhibition of rat recombinant FAAH expressed in Escherichia coli by [14C]oleamide breakdown
[2] = biological target: T1, Fatty-acid amide hydrolase 1 (Homo sapiens, UniProt O00519); assay: Inhibition of human FAAH expressed in COS7 cells by [14C]oleamide breakdown; assay type: cell-based, COS-7
T1 sequence (O00519 whole entry): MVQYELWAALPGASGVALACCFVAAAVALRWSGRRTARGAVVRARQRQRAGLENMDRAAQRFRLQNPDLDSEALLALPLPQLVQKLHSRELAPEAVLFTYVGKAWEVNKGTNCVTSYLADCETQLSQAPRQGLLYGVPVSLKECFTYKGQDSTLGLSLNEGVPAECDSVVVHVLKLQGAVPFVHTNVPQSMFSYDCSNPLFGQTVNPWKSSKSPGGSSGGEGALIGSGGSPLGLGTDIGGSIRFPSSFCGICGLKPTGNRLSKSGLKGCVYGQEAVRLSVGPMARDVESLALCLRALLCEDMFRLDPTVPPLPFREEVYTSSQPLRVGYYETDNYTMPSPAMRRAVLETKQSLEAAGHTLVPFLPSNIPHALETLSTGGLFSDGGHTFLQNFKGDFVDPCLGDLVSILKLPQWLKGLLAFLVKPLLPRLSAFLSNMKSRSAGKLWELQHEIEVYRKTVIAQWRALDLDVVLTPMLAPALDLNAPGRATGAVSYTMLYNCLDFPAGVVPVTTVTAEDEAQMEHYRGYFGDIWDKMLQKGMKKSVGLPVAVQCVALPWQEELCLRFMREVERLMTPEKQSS

Liver carboxylesterase 1 = biological target: T2, Liver carboxylesterase 1 (Homo sapiens, UniProt P23141); assay: Inhibition of TGH
T2 sequence (P23141 whole entry): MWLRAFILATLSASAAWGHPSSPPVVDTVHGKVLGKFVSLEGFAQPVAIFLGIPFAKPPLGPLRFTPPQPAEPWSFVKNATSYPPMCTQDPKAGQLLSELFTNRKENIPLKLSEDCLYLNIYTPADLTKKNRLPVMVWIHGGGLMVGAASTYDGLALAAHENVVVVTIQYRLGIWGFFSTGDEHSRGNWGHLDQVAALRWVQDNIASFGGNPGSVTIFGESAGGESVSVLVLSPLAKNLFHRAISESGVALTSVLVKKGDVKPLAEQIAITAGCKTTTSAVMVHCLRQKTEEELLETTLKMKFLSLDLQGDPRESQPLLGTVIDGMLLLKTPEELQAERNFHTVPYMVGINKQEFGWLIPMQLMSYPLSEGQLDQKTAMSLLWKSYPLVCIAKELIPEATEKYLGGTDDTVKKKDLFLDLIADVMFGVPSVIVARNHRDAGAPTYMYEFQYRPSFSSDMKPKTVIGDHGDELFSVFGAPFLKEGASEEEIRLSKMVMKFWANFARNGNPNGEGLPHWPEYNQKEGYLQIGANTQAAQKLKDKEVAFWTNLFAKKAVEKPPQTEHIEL

Homo sapiens [3] = organism: Homo sapiens; assay: Selectivity for FAAH over KIAA1363
[4] = biological target: T3, Neutral cholesterol ester hydrolase 1 (Homo sapiens, UniProt Q6PIU2); assay: Inhibition of KIAA1363
T3 sequence (Q6PIU2 whole entry): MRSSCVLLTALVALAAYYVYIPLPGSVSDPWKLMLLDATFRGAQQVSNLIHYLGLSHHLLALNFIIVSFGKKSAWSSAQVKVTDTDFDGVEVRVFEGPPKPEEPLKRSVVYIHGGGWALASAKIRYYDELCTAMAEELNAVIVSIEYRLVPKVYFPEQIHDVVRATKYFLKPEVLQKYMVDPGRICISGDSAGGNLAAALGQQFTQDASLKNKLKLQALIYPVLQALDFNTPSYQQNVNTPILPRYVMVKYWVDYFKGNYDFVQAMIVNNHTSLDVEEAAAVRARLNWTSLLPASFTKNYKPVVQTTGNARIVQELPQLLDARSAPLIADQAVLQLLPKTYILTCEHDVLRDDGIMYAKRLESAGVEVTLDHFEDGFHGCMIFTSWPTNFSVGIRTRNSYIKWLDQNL

Homo sapiens [5] = organism: Homo sapiens; assay: Selectivity for FAAH over TGH

Row | SMILES | IC50 [1] [µM] | Ki [1] [µM] | Ki [2] [µM] | IC50 (Liver carboxylesterase 1) [µM] | Ratio IC50 (Homo sapiens [3]) | IC50 [4] [µM] | Ratio IC50 (Homo sapiens [5])
1 | O=C(O)c1ccc(-c2cnc(C(=O)CCCCCCc3ccccc3)o2)nc1 | 0.05 | 0.007 | 0.008 | 3 | > 2000 | > 100 | 60
2 | COc1ccnc(-c2cnc(C(=O)CCCCCCc3ccccc3)o2)c1 | 0.0017 | 0.0008 | – | 0.5 | 59000 | > 100 | 300
3 | Cc1ccnc(-c2cnc(C(=O)CCCCCCc3ccccc3)o2)c1 | 0.001 | 0.0006 | – | 2 | > 100000 | > 100 | 2000
4 | O=C(O)c1ccc(-c2cnc(C(=O)CCCCCCc3ccccc3)o2)o1 | 0.85 | 0.015 | – | > 100 | > 120 | > 100 | > 120
5 | O=C(O)c1cccc(-c2cnc(C(=O)CCCCCCc3ccccc3)o2)c1 | 1.4 | 0.005 | – | > 100 | > 70 | > 100 | > 70
6 | O=C(CCCCCCc1ccccc1)c1ncc(C(=O)N2CCCCC2)o1 | 0.45 | 0.008 | – | 8 | > 200 | > 100 | 20
7 | COc1cc(-c2cnc(C(=O)CCCCCCc3ccccc3)o2)nc(OC)n1 | 0.4 | 0.005 | – | 0.07 | > 250 | > 100 | 0.2
8 | O=C(CCCCCCc1ccccc1)c1ncco1 | 2.5 | – | – | 0.02 | 8 | 19 | 0.008
9 | NC(=O)c1cccc(-c2cnc(C(=O)CCCCCCc3ccccc3)o2)c1 | 2.7 | 0.006 | – | > 100 | > 40 | > 100 | > 40
10 | COc1ncc(-c2cnc(C(=O)CCCCCCc3ccccc3)o2)c(OC)n1 | 9 | 0.026 | – | 3 | > 11 | > 100 | 0.3

Further compounds by falling IC50 [1], results first:

Row | IC50 [1] [µM] | Ki [1] [µM] | Ki [2] [µM] | IC50 (Liver carboxylesterase 1) [µM] | Ratio IC50 (Homo sapiens [3]) | IC50 [4] [µM] | Ratio IC50 (Homo sapiens [5]) | SMILES
11 | 0.68 | 0.35 | – | 30 | > 150 | > 100 | 40 | O=C(CCCCCCc1ccccc1)c1ncc(-c2c[nH]c(=O)[nH]c2=O)o1
12 | 0.34 | 0.025 | – | 34 | > 300 | > 100 | 100 | Nc1ccnc(-c2cnc(C(=O)CCCCCCc3ccccc3)o2)c1
13 | 0.19 | – | – | 0.1 | 70 | 13 | 0.5 | O=C(CCCCCCc1ccccc1)c1ncc(Br)o1
14 | 0.005 | 0.012 | – | 30 | > 20000 | > 100 | 6200 | O=C(CCCCCCc1ccccc1)c1ncc(-c2cc(=O)[nH]c(=O)[nH]2)o1
15 | 0.0015 | 0.0035 | – | 2 | > 67000 | > 100 | 1300 | O=C(CCCCCCc1ccccc1)c1ncc(-c2cc(C(F)(F)F)ccn2)o1
16 | 0.0008 | 0.0011 | – | 0.4 | > 125000 | > 100 | 500 | N#Cc1ccnc(-c2cnc(C(=O)CCCCCCc3ccccc3)o2)c1
17 | 0.0006 | 0.0013 | – | 0.9 | > 170000 | > 100 | 2000 | COC(=O)c1ccnc(-c2cnc(C(=O)CCCCCCc3ccccc3)o2)c1
